Data published in ChEMBL document CHEMBL1158470, “9-(Arenethenyl)purines as dual Src/Abl kinase inhibitors targeting the inactive conformation: design, synthesis, and biological evaluation” (J Med Chem, 2009).
Active and inactive are the calls of the source. The rule behind the calls is not given here.

What was measured:
[1] = Volume of distribution in CD rat at 5 mg/kg, iv; type: ADME, organism-based; parameters: dose 5 mg/kg, route intravenous; conditions: in vivo
[2] = Antiproliferative activity against mouse BA/F3 cells after 3 days by MTS assay
[3] = tested on: K562; assay: Antiproliferative activity against human K562 cells after 3 days by MTS assay
[4] = Cmax in CD rat at 15 mg/kg, po; type: ADME, organism-based; parameters: dose 15 mg/kg, route oral; conditions: in vivo
[5] = Oral bioavailability in CD rat at 15 mg/kg; type: ADME, organism-based; conditions: in vivo
[6] = Tmax in CD rat at 15 mg/kg, po; type: ADME, organism-based; parameters: dose 15 mg/kg, route oral; conditions: in vivo
[7] = Half life in CD rat at 5 mg/kg, iv; type: ADME, organism-based; parameters: dose 5 mg/kg, route intravenous; conditions: in vivo
[8] = Clearance in CD rat at 5 mg/kg, iv; type: ADME, organism-based; parameters: dose 5 mg/kg, route intravenous; conditions: in vivo
[9] = AUC (0 to 24 hrs) in CD rat at 15 mg/kg, po; type: ADME, organism-based; parameters: time < 24 hr, dose 15 mg/kg, route oral; conditions: plasma
[10] = tested on: BaF3; assay: Antitumor activity against mouse BA/F3 cells expressing wild type Bcr-Abl xenografted in CB17 SCID mouse assessed as median survival time at 75 mg/kg, po administered on day 3 once daily for 19 days relative to control; type: functional, organism-based; parameters: dose 75 mg/kg
[11] = tested on: BaF3; assay: Antitumor activity against mouse BA/F3 cells expressing wild type Bcr-Abl xenografted in CB17 SCID mouse assessed as increase in mouse survival at 75 mg/kg, po administered on day 3 once daily for 19 days relative to control; type: functional, organism-based; parameters: dose 75 mg/kg
[12] = Antiproliferative activity against mouse BA/F3 cells expressing wild type Bcr-Abl after 3 days by MTS assay
[13] = target: Tyrosine-protein kinase ABL1 (Homo sapiens, UniProt P00519)
Description: Inhibition of wild type human Abl kinase by TR-FRET assay

[14] = target: Proto-oncogene tyrosine-protein kinase Src (Homo sapiens, UniProt P12931)
Description: Inhibition of human Src kinase by TR-FRET assay

[15] = Antitumor activity against mouse BA/F3 cells expressing wild type Bcr-Abl xenografted in CB17 SCID mouse assessed as increase in mouse survival at 10 mg/kg, po administered on day 3 once daily for 19 days; type: functional; conditions: BaF3
[16] = Antiproliferative activity against mouse BA/F3 cells expressing Bcr-Abl T315I mutant after 3 days by MTS assay; conditions: BaF3, 72 h
[17] = tested on: NIH3T3; assay: Antitumor activity against in po dosed mouse NIH/3T3 cells expressing Src Y527F mutant xenografted in CD1 nude mouse assessed as tumor shrinkage administered daily for 21 days; type: functional, organism-based
[18] = Antitumor activity against mouse BA/F3 cells expressing wild type Bcr-Abl xenografted in CB17 SCID mouse assessed as median survival time at 10 mg/kg, po administered on day 3 once daily for 19 days; type: functional, BaF3
[19] = AUC (0 to 24 hrs) in mouse at 10 mg/kg, po; type: ADME, organism-based; parameters: time < 24 hr, dose 10 mg/kg, route oral; conditions: plasma
[20] = Oral bioavailability in mouse at 10 mg/kg; type: ADME, organism-based; conditions: in vivo
[21] = tested on: NIH3T3; assay: Antitumor activity against in mouse NIH/3T3 cells expressing Src Y527F mutant xenografted in CD1 nude mouse assessed as complete tumor regression at 100 mg/kg, po administered daily for 21 days; type: functional, organism-based; parameters: dose 100 mg/kg
[22] = Tmax in mouse at 10 mg/kg, po; type: ADME, organism-based; parameters: dose 10 mg/kg, route oral; conditions: in vivo
[23] = Cmax in mouse at 10 mg/kg, po; type: ADME, organism-based; parameters: dose 10 mg/kg, route oral; conditions: in vivo

Tyrosine-protein kinase ABL1, sequence (P00519 whole entry): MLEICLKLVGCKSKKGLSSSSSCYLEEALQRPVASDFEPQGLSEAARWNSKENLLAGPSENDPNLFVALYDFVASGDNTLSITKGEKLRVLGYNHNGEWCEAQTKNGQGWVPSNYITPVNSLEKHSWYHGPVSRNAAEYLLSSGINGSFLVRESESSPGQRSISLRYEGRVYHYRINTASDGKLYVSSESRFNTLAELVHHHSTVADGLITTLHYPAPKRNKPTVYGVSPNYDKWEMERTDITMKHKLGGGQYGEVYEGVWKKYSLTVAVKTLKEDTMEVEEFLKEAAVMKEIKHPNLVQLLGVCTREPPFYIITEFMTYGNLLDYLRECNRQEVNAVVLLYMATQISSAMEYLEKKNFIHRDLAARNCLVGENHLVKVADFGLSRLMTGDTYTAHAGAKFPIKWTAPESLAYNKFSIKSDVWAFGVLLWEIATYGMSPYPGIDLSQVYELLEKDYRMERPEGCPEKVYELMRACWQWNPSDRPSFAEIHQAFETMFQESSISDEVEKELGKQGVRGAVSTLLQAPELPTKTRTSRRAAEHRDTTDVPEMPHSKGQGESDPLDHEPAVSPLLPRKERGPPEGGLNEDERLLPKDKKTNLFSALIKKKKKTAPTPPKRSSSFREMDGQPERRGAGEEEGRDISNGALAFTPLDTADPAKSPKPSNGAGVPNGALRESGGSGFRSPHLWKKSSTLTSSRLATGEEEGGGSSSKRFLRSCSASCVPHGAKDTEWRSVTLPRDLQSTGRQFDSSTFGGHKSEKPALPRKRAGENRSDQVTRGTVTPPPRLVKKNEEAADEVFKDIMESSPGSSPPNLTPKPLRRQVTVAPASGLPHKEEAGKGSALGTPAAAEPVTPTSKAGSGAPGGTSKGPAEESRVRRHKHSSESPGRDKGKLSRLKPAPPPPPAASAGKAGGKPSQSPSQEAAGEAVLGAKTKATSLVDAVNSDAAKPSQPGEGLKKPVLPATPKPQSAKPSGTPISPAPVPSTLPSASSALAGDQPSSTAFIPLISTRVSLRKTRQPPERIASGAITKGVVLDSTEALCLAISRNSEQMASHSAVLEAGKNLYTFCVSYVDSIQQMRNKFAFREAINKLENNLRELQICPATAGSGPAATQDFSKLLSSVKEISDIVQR
Proto-oncogene tyrosine-protein kinase Src, sequence (P12931 2-536 limits assumed): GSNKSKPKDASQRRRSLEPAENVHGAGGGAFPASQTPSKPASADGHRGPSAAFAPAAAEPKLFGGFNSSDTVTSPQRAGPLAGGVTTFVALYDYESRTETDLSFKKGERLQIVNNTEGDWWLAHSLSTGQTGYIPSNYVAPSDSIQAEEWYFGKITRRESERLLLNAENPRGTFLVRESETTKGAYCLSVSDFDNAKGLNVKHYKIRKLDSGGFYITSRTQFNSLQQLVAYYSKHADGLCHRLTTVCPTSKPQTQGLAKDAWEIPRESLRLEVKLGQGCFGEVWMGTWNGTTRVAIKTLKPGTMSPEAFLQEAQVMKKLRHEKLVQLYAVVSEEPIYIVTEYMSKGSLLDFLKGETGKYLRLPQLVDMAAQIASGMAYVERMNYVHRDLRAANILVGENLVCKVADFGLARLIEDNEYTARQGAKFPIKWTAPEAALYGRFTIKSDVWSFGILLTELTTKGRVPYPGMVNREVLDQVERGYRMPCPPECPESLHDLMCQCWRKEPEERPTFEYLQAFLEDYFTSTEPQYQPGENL

Row | SMILES | Vd [1] | IC50 ([2]; Mus musculus, BaF3, 72 h) | IC50 ([3]; Homo sapiens, K562, 72 h) | Cmax [4] | Tmax [6] | half-life [7] | clearance [8] | also measured
1 | Cc1ccc(NC(=O)c2cccc(C(F)(F)F)c2)cc1/C=C/n1cnc2c(Nc3ccc(P(C)(C)=O)cc3)ncnc21 | 3.54 L/kg | 7600 nM | 0.95 nM | 63 ng/mL | 1 h | 3.1 h | 13.2 mL/min/kg | bioavailability [5]: 0.8%; AUC(0-t) at 24 h [9]: 146 ng·h/mL
2 | Cc1ccc(C(=O)Nc2cc(N3CCOCC3)cc(C(F)(F)F)c2)cc1/C=C/n1cnc2c(NC3CC3)ncnc21 | – | 2520 nM | 17 nM | – | – | – | – | –
3 | Cc1ccc(C(=O)Nc2ccc(Cl)c(C(F)(F)F)c2)cc1/C=C/n1cnc2c(NC3CC3)ncnc21 | – | 2410 nM | 69 nM | – | – | – | – | –
4 | Cc1cn(-c2cc(NC(=O)c3ccc(C)c(Nc4nccc(-c5cccnc5)n4)c3)cc(C(F)(F)F)c2)cn1 | – | – | – | – | – | – | – | Activity [10]: Active; Activity [11]: Active
5 | Cc1ccc(NC(=O)c2cccc(C(F)(F)F)c2)cc1/C=C/n1cnc2c(NCCCN(C)C)ncnc21 | – | – | – | – | – | – | – | IC50 ([2]; baf3): Not Active; IC50 ([3]; k562): Not Active; IC50 ([12]; baf3): Not Active; IC50 [13]: 157 nM; IC50 [14]: 159 nM
6 | Cc1ccc(C(=O)Nc2cc(C(F)(F)F)ccn2)cc1/C=C/n1cnc2cncnc21 | – | – | – | – | – | – | – | IC50 ([12]; Mus musculus, BaF3, 72 h): 5 nM
7 | Cc1ccc(C(=O)Nc2cc(C(F)(F)F)ccn2)cc1/C=C/n1cnc2c(NC3CC3)ncnc21 | 0.34 L/kg | 4890 nM | 6.1 nM | 23500 ng/mL | 2 h | 5.7 h | 0.667 mL/min/kg | survival at 10 mg/kg [15]: 75%; bioavailability [5]: 116%; IC50 [16]: 2750 nM; Activity [17]: Dose-dependent effect; MST [18]: 35 days; AUC(0-t) at 24 h [19]: 21200 ng·h/mL; bioavailability [20]: 100%; Activity [21]: Active; Tmax [22]: 2 h; Cmax [23]: 3100 ng/mL; AUC(0-t) at 24 h [9]: 428000 ng·h/mL
8 | Cc1ccc(C(=O)Nc2cccc(C(F)(F)F)c2)cc1/C=C/n1cnc2c(NC3CC3)ncnc21 | – | 4350 nM | 17 nM | – | – | – | – | –
9 | Cc1ccc(C(=O)Nc2cc(C(C)(C)C)nn2C)cc1/C=C/n1cnc2c(NC3CC3)ncnc21 | – | 9030 nM | 35 nM | – | – | – | – | IC50 [13]: 146 nM
10 | Cc1ccc(C(=O)Nc2ncc(C(C)(C)C)s2)cc1/C=C/n1cnc2c(NC3CC3)ncnc21 | – | 7120 nM | 292 nM | – | – | – | – | IC50 [13]: 267 nM; IC50 [14]: 310 nM
11 | Cc1ccc(C(=O)Nc2cc(N3CCN(C)CC3)cc(C(F)(F)F)c2)cc1/C=C/n1cnc2c(NC3CC3)ncnc21 | – | 543 nM | 14 nM | – | – | – | – | –
12 | Cc1ccc(NC(=O)c2cccc(C(F)(F)F)c2)cc1/C=C/n1cnc2c(NC3CC3)ncnc21 | 1.08 L/kg | 7860 nM | 95 nM | 2610 ng/mL | 1 h | 4 h | 3.17 mL/min/kg | bioavailability [5]: 40%; AUC(0-t) at 24 h [9]: 32200 ng·h/mL
13 | Cc1ccc(NC(=O)c2cccc(C(F)(F)F)c2)cc1/C=C/n1cnc2c(Nc3ccncc3)ncnc21 | 9.01 L/kg | 635 nM | 3.7 nM | 483 ng/mL | 6 h | 6.7 h | 16 mL/min/kg | –
